Data: US7652037B2, “Methods of lowering lipid levels in a mammal” (City Of Hope, priority 2003, dated 2010)

What was measured:
[1] = Carbonyl trapping activity; settings: compared with AG, PM and LR-90
[2] = test system: STZ-Diabetic Rats; assay: Renal parameters in STZ-diabetic rats treated with LR-9 or LR-74 (Example 10); format: in vivo, rat; settings: for Kidney/Body wt. Ratio / Plasma Creatinine / Urinary Albumin: 50 mg/L in drinking water, 32 weeks; for decrease of elevated plasma creatinine concentrations: diabetic rats
Procedure: (§1) Diabetes was induced in male Sprague-Dawley rats by a single i.p. injection of STZ (65 mg/kg in citrate buffer, pH 4.5) after an overnight fast. Non-diabetic animals were injected with citrate buffer only. One week after STZ injection, only animals with >20 mmol/L plasma glucose were classified as diabetic and included in the study. Diabetic rats were divided randomly into the following treatment groups: diabetic untreated (D); and two diabetic treatment groups, receiving either LR-9 (D+LR-9) or LR-74 (D+LR-74) at 50 mg/L in drinking water. Three non-diabetic groups were studied concurrently: one untreated non-diabetic group (ND), and two non-diabetic groups treated with either LR-9 (ND+LR-9) or LR-74 (ND+LR-74) at 50 mg/L in drinking water.
(§2) Both plasma glucose and body weight were checked before administration of the drug, and no differences were detected among the three diabetic treatment groups or among the three non-diabetic groups. All animals were housed individually and were given free access to food and water. Glycemic control and body weights were monitored periodically. To limit hyperglycemia and ensure that animals maintained body weight, diabetic animals received 3 IU of ultralente insulin two to three times per week. The study was carried out over 32 weeks. Progression of renal dysfunction was assessed by measuring urinary albumin and plasma creatinine concentrations according to known methods. Figarola et al., Diabetologia 46:1140-115, 2003.

[3] = test system: STZ-Diabetic Rats; assay: Plasma lipids and plasma lipid hydroperoxides in STZ-diabetic rats (Example 13); format: in vivo, rat; settings: for reduction of plasma lipid hydroperoxides: diabetic animals; for reduction in plasma cholesterol / reduction in plasma triglycerides: diabetic rats compared with untreated diabetic animals; for plasma cholesterol / plasma triglycerides: treated diabetic rats, means/SEM; for plasma cholesterol: untreated diabetic 136±13; for plasma triglycerides: untreated diabetic 598±110
Procedure: as §1
At 32 weeks of the study, the rats were killed by over-anesthetization with isoflourane and cardiac puncture. Blood samples were collected from each animal and transferred accordingly into heparinized vacutainer tubes and were later centrifuged for plasma isolation. Aliquots of these plasma samples were stored at −70° C. until the time of analysis. Kidneys were removed immediately, decapsulated and rinsed in PBS buffer. Sections of the left kidneys were stored in 10% neutral buffered formalin for subsequent microscopic examinations and AGE immunohistochemistry. Sections of abdominal skin and tail of each individual rat were removed, rinsed in PBS buffer and stored at −70° C. for subsequent AGE quantification and crosslinking analyses.

[4] = Hydroxyl radical production, hydroxylation of benzoate by H2O2; settings: sodium benzoate + H2O2, cell-free
Procedure: The effects of the compounds on free radical production were evaluated in a cell-free system. In vitro hydroxyl radical production was determined by the hydroxylation of benzoate by H2O2 as described in Giardino et al., Diabetes 47:1114-1120, 1998. In brief, 30 mmol/l sodium benzoate in PBS buffer, pH 7.4, was incubated with 10 mmol/l H2O2 overnight at 37° C. alone and in the presence of various amounts of inhibitor compounds. After incubation, aliquots from each sample were analyzed for fluorescence (305 nm excitation; 408 nm emission). Results were expressed as the amount of salicylate equivalent (μM) produced by the hydroxylation of benzoate. Mannitol, a known hydroxyl radical scavenger, was included in the experiment as control.

[5] = test system: STZ-Diabetic Rats; assay: Body weight and glycemia in STZ-diabetic rats (Examples 10 and 14); format: in vivo, rat; settings: for Body Weight / HbA1c / Plasma Glucose: 50 mg/L in drinking water, 32 weeks; for effect on hyperglycemia and body weight gains: either ND or D rats
Procedure: as §1, §2
as §2, with “Rats were treated and divided into treatment groups as described in Example 10. Both” for “Both”, “weeks.” for “weeks. Progression of renal dysfunction was assessed by measuring urinary albumin and plasma creatinine concentrations according to known methods. Figarola et al., Diabetologia 46:1140-115, 2003.”

[6] = Inhibition of copper-catalyzed oxidation of ascorbic acid (Cu2+ chelating activity); settings: 500 nmol/L CuCl2, 500 μmol/L ascorbic acid, phosphate buffer pH 7.4, 60 minutes; read-out: IC50, concentration that inhibited the rate of AA oxidation by 50%
Procedure: In vitro measurement of the kinetics of inhibition of copper-catalyzed oxidation of ascorbic acid was performed according to the methods of Price et al., J. Biol. Chem. 276:48967-48972, 2001. Briefly, CuCl2 and various concentrations of inhibitor compounds were pre-incubated in chelex-treated 20 mmol/L phosphate buffer, pH 7.4, for 5 minutes. Ascorbic acid then was added (50 μL of 10 mmol/L in water) to initiate the reaction (1 mL total reaction volume). The final concentrations of CuCl2 and ascorbic acid in the reaction were 500 nmol/L and 500 μmol/L, respectively. Aliquots (135 μL) were removed at 0 and 60 minutes and transferred to autoinjector vials containing 15 μL of 10 mmol/l DTPA. Samples were analyzed by reversed phase HPLC on an XTerra™ RP18 column (250 mm×4.6 mm, 5 μm) with an XTerra™ RP18 5 μm guard column using a Waters® 2690 Separator Module equipped with auto-injector and Millenium® 32 software. Solvents and gradient were all used as described in Dillon et al., Life Sci. 72:1583-1594, 2003. The absorbance of ascorbic acid was measured at 244 nm and the peak area was obtained to estimate the percent of ascorbic acid remaining versus time. For each inhibitor compound, the concentration that inhibited the rate of AA oxidation by 50% (IC50), was calculated with respect to the control using Prism™ software.

[7] = test system: Human LDL; assay: Cu++-mediated oxidation of LDL, TBARS (Example 9); settings: 5 μM CuCl2, 10-250 μM compound, 5 hours, 37° C.
Procedure: The ability of the LR compounds to inhibit lipid peroxidation was tested using Cu^++-mediated lipid oxidation, a common in vitro model for studies on lipoxidative modifications of proteins. The effects of the LR compounds on lipid peroxidation were studied using Cu^++-mediated oxidation of LDL. Human LDL (50 μg of protein/mL) was incubated at 37° C. in chelex-treated PBS buffer alone or in the presence of 5 μM CuCl2 or 5 μM CuCl2 plus various concentrations of the inhibitor compounds (10-250 μM). After 5 hours of incubation, the amount of thiobarbituric acid reactive substances (expressed as malondialdehyde (MDA) equivalents) generated in the reaction mixture was calculated according to methods described by Dillon et al., Life Sci. #72:1583-1594, 2003. Briefly, aliquots from each sample were precipitated with 20% trichloroacetic acid, centrifuged and an equal volume of 1% thiobarbituric acid was added to the supernatant. The samples then were heated to 95° C. for 10 minutes, and upon cooling, the absorbance was read at 532 nm. Hydrolyzed tetraethoxypropane was used as a standard for the MDA equivalent calculation.

| IC50 [6] [µM] | Compound | carbonyl trapping activities [1] | Kidney/Body wt. Ratio ([2]; diabetic (D) rats) [g/100 g] | Plasma Creatinine ([2]; diabetic (D) rats) [mg/dL] | Urinary Albumin ([2]; diabetic (D) rats) [mg/42 hr] | decrease of elevated plasma creatinine concentrations [2] [%] | Kidney/Body wt. Ratio ([2]; non-diabetic (ND) rats) [g/100 g] | Plasma Creatinine ([2]; non-diabetic (ND) rats) [mg/dL] | Urinary Albumin ([2]; non-diabetic (ND) rats) [mg/42 hr] | reduction of plasma lipid hydroperoxides [3] [%] | reduction in plasma cholesterol [3] | reduction in plasma triglycerides [3] [%] | plasma cholesterol [3] [mg/dL] | plasma triglycerides [3] [mg/dL] | inhibition of hydroxyl radical formation [4] | Body Weight ([5]; diabetic (D) rats) [g] | HbA1c ([5]; diabetic (D) rats) [%] | Plasma Glucose ([5]; diabetic (D) rats) [mmol/L] | effect on hyperglycemia and body weight gains [5] | Body Weight ([5]; non-diabetic (ND) rats) [g] | further results |
| --- | --- | --- | --- | --- | --- | --- | --- | --- | --- | --- | --- | --- | --- | --- | --- | --- | --- | --- | --- | --- | --- |
| 200 | CC(C)(Oc1ccc(NC(=O)c2ccc3ccccc3c2)cc1)C(=O)O [LR-9, 4-(2-napthylcarboxamido) phenoxyisobutyric acid] | weaker | 1.58 ± 0.11 | 1.79 ± 0.39 | 18.0 ± 3.7 | ~50 | 0.51 ± 0.01 | 0.42 ± 0.02 | 4.8 ± 1.2 | 35 | ≤ 30% | ≤ 60 | 96 ± 5 | 239 ± 50 | strong inhibitors | 288.0 ± 29.3 | 2.0 ± 0.1 | 27.1 ± 0.5 | no effect | 681.0 ± 4.6 | HbA1c ([5]; non-diabetic (ND) rats): 0.9 ± 0.1%; Plasma Glucose ([5]; non-diabetic (ND) rats): 8.2 ± 0.5 mmol/L |
| 50 | CC(Oc1cccc2cccnc12)C(=O)O (centres unmarked) [LR-74, 2-(8-quinolinoxy) propionic acid] | weaker | 1.52 ± 0.10 | 1.64 ± 0.44 | 14.3 ± 3.7 | ~50 | 0.52 ± 0.01 | 0.42 ± 0.03 | 4.6 ± 1.2 | 45 | approximately 30% | ~70 | 93 ± 2 | 161 ± 29 | strong inhibitors | 314.7 ± 21.6 | 2.1 ± 0.1 | 26.9 ± 0.6 | no effect | 744.0 ± 25.8 | inhibition of Cu++-mediated LDL oxidation (lipid peroxidation) [7]: better than AG; HbA1c ([5]; non-diabetic (ND) rats): 0.9 ± 0.1%; Plasma Glucose ([5]; non-diabetic (ND) rats): 6.8 ± 0.4 mmol/L |
| 275 | methylene bis(4,4′-(2-chlorophenylureidophenoxyisobutyric acid) [LR-90] |  |  |  |  |  |  |  |  |  |  |  |  |  |  |  |  |  |  |  | inhibition of Cu++-mediated LDL oxidation (lipid peroxidation) [7]: better than AG |
